Test results from ChEMBL document CHEMBL5620387, “Discovery of 4'-trifluoromethylchalcones as novel, potent and selective hCYP1B1 inhibitors without concomitant AhR activation” (Eur J Med Chem, 2023).

Assays:
Cytochrome P450 1B1 = molecular target: T1, Cytochrome P450 1B1 (Homo sapiens, UniProt Q16678); assay: Inhibition of human recombinant CYP1B1 assessed as fluorescence of resorufin
T1 sequence (Q16678 whole entry): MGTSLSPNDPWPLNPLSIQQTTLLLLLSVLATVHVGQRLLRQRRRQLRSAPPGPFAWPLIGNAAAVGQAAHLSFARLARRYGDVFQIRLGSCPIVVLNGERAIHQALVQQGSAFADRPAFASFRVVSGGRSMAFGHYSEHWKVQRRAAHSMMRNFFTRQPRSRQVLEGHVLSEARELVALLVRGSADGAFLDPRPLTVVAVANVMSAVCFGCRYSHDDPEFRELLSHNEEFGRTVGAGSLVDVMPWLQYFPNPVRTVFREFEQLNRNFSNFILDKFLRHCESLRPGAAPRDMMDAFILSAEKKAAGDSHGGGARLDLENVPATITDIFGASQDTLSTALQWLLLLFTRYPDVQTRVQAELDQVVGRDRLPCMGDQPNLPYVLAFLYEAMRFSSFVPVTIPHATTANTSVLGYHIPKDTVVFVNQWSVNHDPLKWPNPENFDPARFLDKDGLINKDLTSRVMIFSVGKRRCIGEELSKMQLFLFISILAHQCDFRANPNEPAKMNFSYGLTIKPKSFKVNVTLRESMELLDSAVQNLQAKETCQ

Cytochrome P450 1A1 = molecular target: T2, Cytochrome P450 1A1 (Homo sapiens, UniProt P04798); assay: Inhibition of human recombinant CYP1A1 assessed as fluorescence of resorufin; assay type: ADME
T2 sequence (P04798 whole entry): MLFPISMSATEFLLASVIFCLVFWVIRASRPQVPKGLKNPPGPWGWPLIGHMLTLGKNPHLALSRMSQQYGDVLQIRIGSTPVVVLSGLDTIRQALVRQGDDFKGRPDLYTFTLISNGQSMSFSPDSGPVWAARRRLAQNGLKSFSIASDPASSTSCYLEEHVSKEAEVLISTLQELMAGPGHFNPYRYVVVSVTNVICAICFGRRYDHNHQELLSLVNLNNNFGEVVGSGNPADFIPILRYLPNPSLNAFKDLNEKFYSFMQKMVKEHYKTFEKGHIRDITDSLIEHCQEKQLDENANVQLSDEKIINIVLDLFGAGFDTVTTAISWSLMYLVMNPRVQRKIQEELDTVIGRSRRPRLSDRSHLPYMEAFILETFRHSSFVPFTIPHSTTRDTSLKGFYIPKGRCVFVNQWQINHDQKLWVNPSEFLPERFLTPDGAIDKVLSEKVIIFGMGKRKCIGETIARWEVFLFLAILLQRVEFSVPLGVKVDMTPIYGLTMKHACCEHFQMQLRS

Cytochrome P450 1A2 [1] = molecular target: T3, Cytochrome P450 1A2 (Homo sapiens, UniProt P05177); assay: Inhibition of human recombinant CYP1A2 assessed as fluorescence of resorufin; assay type: ADME
T3 sequence (P05177 whole entry): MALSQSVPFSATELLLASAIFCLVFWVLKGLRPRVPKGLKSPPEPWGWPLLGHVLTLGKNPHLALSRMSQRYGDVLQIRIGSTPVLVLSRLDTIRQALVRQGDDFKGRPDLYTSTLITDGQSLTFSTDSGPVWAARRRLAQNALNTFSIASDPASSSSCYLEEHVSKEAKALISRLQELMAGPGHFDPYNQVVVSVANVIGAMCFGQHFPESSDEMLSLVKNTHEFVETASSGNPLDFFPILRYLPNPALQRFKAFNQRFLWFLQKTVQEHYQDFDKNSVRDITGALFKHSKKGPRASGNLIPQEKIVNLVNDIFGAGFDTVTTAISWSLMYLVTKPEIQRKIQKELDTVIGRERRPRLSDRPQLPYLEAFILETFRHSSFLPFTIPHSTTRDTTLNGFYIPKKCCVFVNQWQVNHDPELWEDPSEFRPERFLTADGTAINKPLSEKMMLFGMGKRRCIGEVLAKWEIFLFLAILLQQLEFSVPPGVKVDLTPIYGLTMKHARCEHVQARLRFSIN

Cytochrome P450 2C9 = Cytochrome P450 2C9 (Homo sapiens, UniProt P11712); assay: Inhibition of human CYP2C9 in human liver microsomes by LC-MS/MS analysis; assay type: ADME, Microsome
Chain of Cytochrome P450 2C9 (P11712 whole entry): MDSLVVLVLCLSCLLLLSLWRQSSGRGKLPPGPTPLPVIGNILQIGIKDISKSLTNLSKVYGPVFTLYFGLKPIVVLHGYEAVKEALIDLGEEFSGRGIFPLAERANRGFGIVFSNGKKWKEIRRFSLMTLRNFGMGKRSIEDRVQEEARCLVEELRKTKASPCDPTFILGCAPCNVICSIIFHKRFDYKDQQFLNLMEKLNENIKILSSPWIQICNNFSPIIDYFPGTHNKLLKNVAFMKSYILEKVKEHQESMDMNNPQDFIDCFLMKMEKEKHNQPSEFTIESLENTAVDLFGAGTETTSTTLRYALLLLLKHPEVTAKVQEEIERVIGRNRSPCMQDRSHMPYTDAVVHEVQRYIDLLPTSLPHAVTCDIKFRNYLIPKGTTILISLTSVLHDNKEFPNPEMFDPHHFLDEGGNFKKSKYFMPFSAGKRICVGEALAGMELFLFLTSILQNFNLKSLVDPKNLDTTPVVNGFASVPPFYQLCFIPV

Cytochrome P450 2C19 = Cytochrome P450 2C19 (Homo sapiens, UniProt P33261); assay: Inhibition of human CYP2C19 in human liver microsomes by LC-MS/MS analysis; assay type: ADME, Microsome
Chain of Cytochrome P450 2C19 (P33261 whole entry): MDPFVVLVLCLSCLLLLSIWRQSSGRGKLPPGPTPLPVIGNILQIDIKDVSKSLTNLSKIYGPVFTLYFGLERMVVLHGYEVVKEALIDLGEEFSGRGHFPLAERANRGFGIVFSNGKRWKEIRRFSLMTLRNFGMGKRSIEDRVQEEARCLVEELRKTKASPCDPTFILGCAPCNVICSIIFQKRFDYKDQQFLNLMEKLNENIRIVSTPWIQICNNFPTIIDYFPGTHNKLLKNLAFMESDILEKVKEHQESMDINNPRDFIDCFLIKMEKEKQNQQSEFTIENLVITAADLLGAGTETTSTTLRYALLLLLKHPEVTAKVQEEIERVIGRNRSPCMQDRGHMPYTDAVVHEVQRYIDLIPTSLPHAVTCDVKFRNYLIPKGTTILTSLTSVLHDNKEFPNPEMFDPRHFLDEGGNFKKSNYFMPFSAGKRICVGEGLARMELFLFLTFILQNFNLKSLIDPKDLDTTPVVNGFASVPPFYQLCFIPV

Cytochrome P450 1A2 [2] = molecular target: T3, Cytochrome P450 1A2; assay: Inhibition of human CYP1A2 in human liver microsomes by LC-MS/MS analysis; assay type: ADME, Microsome
[3] = molecular target: T4, Aryl hydrocarbon receptor (Homo sapiens, UniProt P35869); assay: Antagonist activity at aryl hydrocarbon receptor (unknown origin) expressed in HEK293T cells assessed as luciferase activity at 10 uM measured after 24 hrs; assay type: toxicity, cell-based
T4 sequence (P35869 whole entry): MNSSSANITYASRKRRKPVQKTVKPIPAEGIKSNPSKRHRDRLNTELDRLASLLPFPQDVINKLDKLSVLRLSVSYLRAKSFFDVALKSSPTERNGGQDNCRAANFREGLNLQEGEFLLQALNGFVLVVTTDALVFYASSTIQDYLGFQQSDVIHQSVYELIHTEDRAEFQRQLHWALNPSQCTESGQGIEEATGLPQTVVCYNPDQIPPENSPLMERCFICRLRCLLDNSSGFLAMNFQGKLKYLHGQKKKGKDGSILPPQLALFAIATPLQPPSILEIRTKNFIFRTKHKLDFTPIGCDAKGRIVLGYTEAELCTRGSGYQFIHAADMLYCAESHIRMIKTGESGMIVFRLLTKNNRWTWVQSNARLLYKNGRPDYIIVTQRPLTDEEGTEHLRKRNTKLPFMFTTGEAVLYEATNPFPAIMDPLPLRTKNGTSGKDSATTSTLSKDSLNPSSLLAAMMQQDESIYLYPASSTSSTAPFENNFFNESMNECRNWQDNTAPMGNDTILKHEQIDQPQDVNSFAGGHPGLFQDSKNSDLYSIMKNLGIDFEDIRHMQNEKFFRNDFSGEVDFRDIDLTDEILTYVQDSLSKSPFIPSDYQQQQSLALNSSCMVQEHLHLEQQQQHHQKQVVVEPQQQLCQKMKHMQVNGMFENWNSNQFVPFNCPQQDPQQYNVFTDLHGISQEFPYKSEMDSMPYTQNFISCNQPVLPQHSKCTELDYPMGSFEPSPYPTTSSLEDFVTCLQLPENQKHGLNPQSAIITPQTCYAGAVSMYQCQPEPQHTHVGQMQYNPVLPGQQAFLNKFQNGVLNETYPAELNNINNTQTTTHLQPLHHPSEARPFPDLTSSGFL

Cytochrome P450 2D6 = Cytochrome P450 2D6 (Homo sapiens, UniProt P10635); assay: Inhibition of human CYP2D6 in human liver microsomes by LC-MS/MS analysis; assay type: ADME, Microsome
Chain of Cytochrome P450 2D6 (P10635 whole entry): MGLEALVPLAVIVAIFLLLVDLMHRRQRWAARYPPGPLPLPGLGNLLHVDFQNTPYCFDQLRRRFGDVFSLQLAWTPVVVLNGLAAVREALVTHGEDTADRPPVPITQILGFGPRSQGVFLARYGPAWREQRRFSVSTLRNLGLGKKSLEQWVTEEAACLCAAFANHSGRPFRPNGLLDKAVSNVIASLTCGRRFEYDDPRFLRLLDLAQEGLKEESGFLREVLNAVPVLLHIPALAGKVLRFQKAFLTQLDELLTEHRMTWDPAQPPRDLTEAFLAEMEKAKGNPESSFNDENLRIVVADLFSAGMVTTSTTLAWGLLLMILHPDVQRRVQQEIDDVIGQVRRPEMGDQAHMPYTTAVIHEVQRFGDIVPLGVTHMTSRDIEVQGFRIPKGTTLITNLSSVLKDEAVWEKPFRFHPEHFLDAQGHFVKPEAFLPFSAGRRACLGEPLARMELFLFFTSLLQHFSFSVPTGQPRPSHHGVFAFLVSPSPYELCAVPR

[4] = Metabolic stability in human liver microsomes assessed as half life measured after 60 mins by LC-UV analysis; assay type: ADME, Microsome
[5] = Metabolic stability in human liver microsomes assessed as relative remaining concentration measured after 60 mins by LC-UV analysis; assay type: ADME, Microsome; conditions: read-out: INH
Cytochrome P450 2C8 = molecular target: T5, Cytochrome P450 2C8 (Homo sapiens, UniProt P10632); assay: Inhibition of human CYP2C8 in human liver microsomes by LC-MS/MS analysis; assay type: ADME, Microsome
T5 sequence (P10632 whole entry): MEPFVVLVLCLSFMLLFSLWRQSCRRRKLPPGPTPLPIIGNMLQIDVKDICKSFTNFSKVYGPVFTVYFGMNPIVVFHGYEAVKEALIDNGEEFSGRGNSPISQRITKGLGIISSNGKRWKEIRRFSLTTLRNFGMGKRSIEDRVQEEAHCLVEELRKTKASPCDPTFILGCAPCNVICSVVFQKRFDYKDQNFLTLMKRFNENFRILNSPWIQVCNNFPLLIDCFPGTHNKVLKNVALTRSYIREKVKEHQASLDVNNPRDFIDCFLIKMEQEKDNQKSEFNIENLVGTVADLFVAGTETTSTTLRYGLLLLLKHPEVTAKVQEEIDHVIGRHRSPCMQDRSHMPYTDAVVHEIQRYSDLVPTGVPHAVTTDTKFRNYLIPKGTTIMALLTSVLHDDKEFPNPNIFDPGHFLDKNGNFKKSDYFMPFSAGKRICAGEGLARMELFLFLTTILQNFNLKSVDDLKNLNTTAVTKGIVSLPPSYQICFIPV

Cytochrome P450 3A4 = Cytochrome P450 3A4 (Homo sapiens, UniProt P08684); assay: Inhibition of human CYP3A4 measured after 3 mins incubation by fluorescence assay; assay type: ADME
Chain of Cytochrome P450 3A4 (P08684 whole entry): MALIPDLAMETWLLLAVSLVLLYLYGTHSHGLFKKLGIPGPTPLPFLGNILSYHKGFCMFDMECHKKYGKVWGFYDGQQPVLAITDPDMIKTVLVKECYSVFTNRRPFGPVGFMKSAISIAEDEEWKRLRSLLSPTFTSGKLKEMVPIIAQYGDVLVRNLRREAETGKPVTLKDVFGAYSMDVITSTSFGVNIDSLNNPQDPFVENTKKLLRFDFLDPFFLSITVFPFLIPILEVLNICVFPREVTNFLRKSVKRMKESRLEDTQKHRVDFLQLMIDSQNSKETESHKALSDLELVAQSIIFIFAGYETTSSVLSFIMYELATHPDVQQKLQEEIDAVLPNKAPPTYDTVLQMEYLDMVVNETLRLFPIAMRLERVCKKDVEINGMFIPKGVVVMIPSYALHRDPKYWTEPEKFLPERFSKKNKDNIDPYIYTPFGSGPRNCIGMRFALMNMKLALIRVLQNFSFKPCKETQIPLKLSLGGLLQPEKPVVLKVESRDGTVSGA

Cytochrome P450 2A6 = molecular target: T6, Cytochrome P450 2A6 (Homo sapiens, UniProt P11509); assay: Inhibition of human CYP2A6 in human liver microsomes by LC-MS/MS analysis; assay type: ADME, Microsome
T6 sequence (P11509 whole entry): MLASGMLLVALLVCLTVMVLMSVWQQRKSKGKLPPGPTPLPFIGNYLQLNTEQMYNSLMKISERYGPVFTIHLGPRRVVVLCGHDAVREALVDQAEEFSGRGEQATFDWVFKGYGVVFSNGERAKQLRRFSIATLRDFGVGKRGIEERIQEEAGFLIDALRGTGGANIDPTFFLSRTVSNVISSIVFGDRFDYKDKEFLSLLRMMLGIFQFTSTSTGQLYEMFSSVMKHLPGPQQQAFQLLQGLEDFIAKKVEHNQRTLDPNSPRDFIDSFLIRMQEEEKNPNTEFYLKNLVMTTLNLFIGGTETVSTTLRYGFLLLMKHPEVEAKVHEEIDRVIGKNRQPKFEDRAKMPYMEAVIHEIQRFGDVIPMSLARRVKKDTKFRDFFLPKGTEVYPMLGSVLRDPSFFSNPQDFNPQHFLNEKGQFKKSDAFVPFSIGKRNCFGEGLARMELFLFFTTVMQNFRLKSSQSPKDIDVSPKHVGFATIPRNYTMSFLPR

Cytochrome P450 2E1 = Cytochrome P450 2E1 (Homo sapiens, UniProt P05181); assay: Inhibition of human CYP2E1 in human liver microsomes by LC-MS/MS analysis; assay type: ADME, Microsome
Chain of Cytochrome P450 2E1 (P05181 whole entry): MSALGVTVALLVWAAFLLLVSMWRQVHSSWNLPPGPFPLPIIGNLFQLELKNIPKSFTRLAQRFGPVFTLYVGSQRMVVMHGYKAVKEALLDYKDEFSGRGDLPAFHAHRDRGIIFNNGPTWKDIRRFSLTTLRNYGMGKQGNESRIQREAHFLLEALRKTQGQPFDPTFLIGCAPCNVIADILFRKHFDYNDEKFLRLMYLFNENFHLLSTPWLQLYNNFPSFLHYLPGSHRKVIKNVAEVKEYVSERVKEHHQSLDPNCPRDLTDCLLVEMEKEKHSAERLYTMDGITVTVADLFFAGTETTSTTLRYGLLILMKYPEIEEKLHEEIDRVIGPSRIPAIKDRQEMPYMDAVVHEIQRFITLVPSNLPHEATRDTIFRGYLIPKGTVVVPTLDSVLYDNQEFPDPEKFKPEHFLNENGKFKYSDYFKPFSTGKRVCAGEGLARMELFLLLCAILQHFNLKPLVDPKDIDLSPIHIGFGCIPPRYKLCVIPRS

| IC50 (Cytochrome P450 1B1) [µM] | IC50 (Cytochrome P450 1A2 [1]) [µM] | Structure (SMILES) | further results |
| --- | --- | --- | --- |
| 0.036 | – | O=C(/C=C/c1ccccc1)c1ccc(Br)cc1 | – |
| 0.0262 | > 100 | O=C(/C=C/c1ccccc1)c1ccc(C(F)(F)F)cc1 | IC50 (Cytochrome P450 1A1): 0.274 µM |
| 0.18 | – | COc1ccc(C(=O)/C=C/c2ccccc2)cc1 [4'-METHOXYCHALCONE] | – |
| – | > 100 | COc1cc(OC)c(/C=C/C(=O)c2ccc(C(F)(F)F)cc2)cc1Br | – |
| – | > 100 | Cc1ccc(/C=C/C(=O)c2ccc(C(F)(F)F)cc2)cc1 | – |
| – | > 100 | CCCOc1ccc(/C=C/C(=O)c2ccc(C(F)(F)F)cc2)c(OC)c1 | – |
| – | > 100 | O=C(/C=C/c1ccc(F)cc1)c1ccc(C(F)(F)F)cc1 | – |
| 1.06 | – | Nc1ccc(C(=O)/C=C/c2ccccc2)cc1 | – |
| – | > 100 | CCCOc1ccc(/C=C/C(=O)c2ccc(C(F)(F)F)cc2)cc1 | – |
| – | > 100 | O=C(/C=C/c1ccc(O)cc1)c1ccc(C(F)(F)F)cc1 | – |
| 0.11 | – | CN(C)c1ccc(C(=O)/C=C/c2ccccc2)cc1 | – |
| – | > 100 | CCOc1ccc(/C=C/C(=O)c2ccc(C(F)(F)F)cc2)cc1 | – |
| – | > 100 | COc1cc(OC)c(/C=C/C(=O)c2ccc(C(F)(F)F)cc2)cc1Cl | IC50 (Cytochrome P450 2C9): > 100 µM; IC50 (Cytochrome P450 2C19): > 100 µM; IC50 (Cytochrome P450 1A2 [2]): > 100 µM; Activity [3]: Active; IC50 (Cytochrome P450 2D6): > 100 µM; half-life [4]: 1.07 h; remaining at 1 h [5]: 54.5%; IC50 (Cytochrome P450 2C8): > 100 µM; IC50 (Cytochrome P450 3A4): > 100 µM; IC50 (Cytochrome P450 2A6): > 100 µM; IC50 (Cytochrome P450 2E1): > 100 µM |
| 0.031 | – | Cc1ccc(C(=O)/C=C/c2ccccc2)cc1 | – |
| – | > 100 | COc1cc(OC(=O)c2cccs2)ccc1/C=C/C(=O)c1ccc(C(F)(F)F)cc1 | – |
